Results from patent US20260272908A1 (VANDERBILT UNIVERSITY, priority 2023, published 2026).

Legend:
p-ERK = experiment: Western blot for phospho-ERK in hPCO lines; assay type: cell-based, human
Source text: FIG. 7C-7D show Western blot analysis for p-STAT3 and p-ERK in three Pyr-resistant hPCO lines after Pyr treatment (FIG. 7C) and ratios of p-STAT3/t-STAT3 and p-ERK/t-ERK (FIG. 7D). FIG. 7E-7F show a Western blot for basal p-STAT3 and p-ERK levels in Pyr-sensitive and Pyr-resistant hPCO lines (FIG. 7E), and ratios of p-STAT3/t-STAT3 and p-ERK/t-ERK (FIG. 7F). FIG. 7G-7H show a Western blot for p-STAT3 and p-ERK in hPCO-3 after treatment of trametinib (Tra), Pyr, and their combinations (FIG. 7G), and ratios of p-STAT3/t-STAT3 and p-ERK/t-ERK (FIG. 7H). […] FIG. 7K-7L show phase-contrast images of Pyr-sensitive hPCO-2 treated with DMSO, Pyr, STAT3-IN-1, Sttatic, and Cryptotanshinone (CPT) for 6 days (FIG. 7K) and quantitation of organoid diameters before and after treatment (FIG. 7L). Mean±standard deviation. […]
(§1) Total proteins were extracted from organoids using radioimmunoprecipitation assay buffer (10 mmol/L Tris-HC, pH 7.2, 150 mmol/L NaCl, 5 mmol/L EDTA, 0.1% sodium dodecyl sulfate, 1.0% Triton X-100, 1% deoxycholate) with protease inhibitors. The protein concentration was measured The Bio-Rad Protein Assay (Bio-Rad Laboratories, Hercules, CA). […] After washes with TBS-T, chemiluminescence was detected with an Amersham Imager 680 instrument (GE Healthcare) after 1 mL of the SuperSignal West Femto Maximum Sensitivity Substrate (ThermoFisher) was applied to the membranes.

[1] = tested on: human pre-cancerous organoid (hPCO) lines; experiment: Human precancerous organoid (hPCO) growth and organoid death
Description: To establish human pre-cancer organoids (hPCO), fresh tissues were obtained from the gastric cancer patients who underwent curative gastrectomy at SNUH (IRB No. H-1806-166-954).
Meta3, Meta4, and hPCO organoids were cultured in Matrigel (ECM, Sigma) with Mouse or Human IntestiCult medium (StemCell Technology) supplemented with 1% of penicillin/streptomycin (Gibco) in 48-well plates and medium was replaced every 3 days. The organoids were split every 5-7 days before they formed budding structures.
Mouse or human organoids were split and cultured in the Mouse or Human IntestiCult media for 1-2 days until they formed three-dimensional (3D) spherical structures, then the media was switched to media containing either DMSO vehicle or a certain concentration of each drug and cultured for 3 days. The EVOS M7000 inverted microscope were used to obtain phase contrast images of organoids. All experiments were repeated at least three times.
The number and diameters of mouse and human organoids treated with drugs were manually counted and measured at day 0 and 3 or 6 after treatment from four entire well images of each condition at 4× magnification. For counting live or dead cells, organoids were stained with Calcein AM for live cells and EthD-1 for dead cells 3 days after treatment and the number of EthD-1 positive organoids were manually counted from images taken from three wells of each condition at 4× magnification. All experiments were performed at least in triplicate. The mean values from each condition were compared by Student's paired or unpaired t-test using Graphpad Prism. *P<0.05, **P<0.01, ***P<0.001, ****P<0.0001.

phospho-STAT3 (p-STAT3) = experiment: Western blot for phospho-STAT3 in Meta3 and Meta4 organoids; assay type: cell-based, mouse
Description: FIG. 3C-3D show the Western blot analysis for p-STAT3 and p-ERK in Meta3 and Meta4 organoids (FIG. 3C) and ratios of p-STAT3/total STAT3 and p-ERK/total ERK (FIG. 3D). […] FIG. 3F-3G show phase-contrast images of Meta4 organoids treated with DMSO, Pyr (100 nM), STAT3-IN-1 (1 μM), Stattic (2 μM), and Cryptotanshinone (CPT) (5 μM) for 3 days (FIG. 3F), and quantitation of organoid diameters before and after treatment (FIG. 3G). FIG. 3H-3I show phase-contrast images of Meta4 organoids treated with DMSO, trametinib (Tra), STAT3-IN-1, combination of Tra and STAT3-IN-1, and Pyr, for 3 days (FIG. 3H), and quantitation of organoid diameters before and after treatment (FIG. 3I). FIG. 3J-3K show western blot for p-STAT3 and p-ERK after treatment of Tra, Pyr, and SSTC3 (FIG. 3J) and ratios of p-STAT3/t-STAT3 and p-ERK/t-ERK (FIG. 3K). […] Relative quantification of each gene expression level was normalized to GAPDH gene expression. Shading scale represents the mRNA expression values. FIG. 3M show representative mRNA of Pim-1 and Cyclin-B1 after treatment. Mean±standard deviation. […] Scale bar=500 μM.
as §1, with “CA). 5 to 10 μg of total protein was loaded onto 12.5% or 10% sodium dodecyl sulfate/polyacrylamide gel electrophoresis (PAGE) and transferred onto polyvinylidene difluoride membranes (Millipore, Billerica, MA).” for “CA).”

Cc1cc(/C=C/c2ccc3cc(N(C)C)ccc3[n+]2C)c(C)n1-c1ccccc1 [pyrvinium]
p-ERK levels (p-ERK; three pyrvinium-resistant hPCO lines): no significant differences
p-ERK levels (p-ERK; three pyrvinium-sensitive hPCO lines): decreased
growth of metaplastic cells in hPCO lines ([1]; hPCO with metaplastic features): growth arrest
number of hPCO lines classified pyrvinium-moderate ([1]; of twenty hPCO lines, 6 days): six
number of hPCO lines classified pyrvinium-resistant ([1]; of twenty hPCO lines, 6 days): nine
number of hPCO lines classified pyrvinium-sensitive ([1]; of twenty hPCO lines, 6 days): Five
phosphorylation of STAT3^Y705 (phospho-STAT3 (p-STAT3); Meta3): reduced phosphorylation
phosphorylation of STAT3^Y705 (phospho-STAT3 (p-STAT3); Meta4, 3 days): significant reduction
